Two compounds from article PMC8865654, “Chiral evasion and stereospecific antifolate resistance in Staphylococcus aureus” (PLoS Computational Biology, 2022) can be followed below.

Assay [1] addresses T1, Staphylococcus aureus dihydrofolate reductase (SaDHFR), wild type (Staphylococcus aureus, UniProt P0A017).
T1 construct: gene folA
Briefly: X-ray crystal structure (re-refined from 4XEC data and newly deposited); also enzyme inhibition with t-NADPH pre-incubation (Fig E in S1 Text). The assay is classed as binding.

For assay [2], the target named is T1, Staphylococcus aureus dihydrofolate reductase (SaDHFR), wild type. Briefly: X-ray crystal structure (ternary with R-27); enzyme inhibition assay with isolated t-NADPH. The format is biochemical.

T1 sequence (P0A017 2-159): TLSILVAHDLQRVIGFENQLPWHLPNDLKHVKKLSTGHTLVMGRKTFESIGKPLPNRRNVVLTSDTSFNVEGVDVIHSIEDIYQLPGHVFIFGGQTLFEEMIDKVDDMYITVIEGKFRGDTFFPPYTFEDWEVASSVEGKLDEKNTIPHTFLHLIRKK

Consider `CCc1nc(N)nc(N)c1C#C[C@H](C)c1cc(OC)cc(-c2ccncc2)c1` [R-27], for which, in assay [1], the “X-ray crystal structure (re-refined from 4XEC data and newly deposited); also en” value is recorded as “the PDB ID for R-27:t-NADPH:SaDHFR is 7T7S”.
One may read the IC50 as the concentration that gives 50% inhibition. Higher therefore signals weaker potency. Turning to `NC(=O)C1=CN2[C@@H]3O[C@H](COP(=O)(O)OP(=O)(O)OC[C@H]4O[C@@H](n5cnc6c(N)ncnc65)[C@H](OP(=O)(O)O)[C@@H]4O)[C@@H](O)[C@H]3O[C@@H]2CC1` [t-NADPH], the IC50 in assay [2] is 111 ± 6 µM.
